Data reported in ChEMBL document CHEMBL3243934, “Synthesis and antiinflammatory activity of cis-4,5,6,7,8,8a,9-hexahydro-alpha-methyl-5H-fluorene-2-acetic acid” (1977).

Columns and labels:
Rattus norvegicus = assay: Antiinflammatory activity in rat assessed as inhibition of carrageenan-induced paw edema at 150 mg/kg; format: functional
Oryctolagus cuniculus = assay: Antiinflammatory activity in rabbit assessed as inhibition of edema at 200 ug per site by reversed passive arthus test; format: functional

Compound	inhibition in vivo at 150 mg/kg (Rattus norvegicus)	inhibition (INH) (Oryctolagus cuniculus)
CC(C(=O)O)c1ccc2c(c1)Cc1ccccc1-2 (stereo not given) [CICLOPROFEN]	66%	36%
CCCCC1C(=O)N(c2ccccc2)N(c2ccccc2)C1=O [PHENYLBUTAZONE]	59%	44%
CC(C(=O)O)c1ccc2c(c1)C[C@H]1CCCC[C@@H]21 (stereo not given in full)	63%	55%
COc1ccc2c(c1)c(CC(=O)O)c(C)n2C(=O)c1ccc(Cl)cc1 [INDOMETHACIN]		57%
COc1ccc2cc([C@H](C)C(=O)O)ccc2c1 [NAPROXEN]		55%
CC(C)Cc1ccc(C(C)C(=O)O)cc1 (stereo not given) [IBUPROFEN]	56%	54%
